The target of assay [1] is T1, HisAviTEV-hSTING (139-342) human REF-mutated protein (Homo sapiens, UniProt Q86WV6).
T1 construct: made in house; host or cells: E. coli Rosetta 2 (DE3), co-expressed with BirA (1-321)
The assay can be described thus: Protein thermal shift assay, STING C-terminal binding domain protein. To be noted: test compound final concentration 0.5 mM.

For assay [2], the target named is T2, HisAviTEV-hSTING (139-342) human wild-type protein (Homo sapiens, UniProt Q86WV6, H232R).
T2 construct: made in house; host or cells: E. coli Rosetta 2 (DE3), co-expressed with BirA (1-321)
The assay is described as above. To be noted: test compound final concentration 0.5 mM.

In assay [3] the target is T3, His-Avi-TEV-mSTING (138-341) mouse wild-type protein (Mus musculus, UniProt Q3TBT3).
T3 construct: made in house; host or cells: E. coli Rosetta 2 (DE3), co-expressed with BirA (1-321)
The assay is described as above. As to conditions: test compound final concentration 0.5 mM. As for the experimental part: Each of these expression strains was added to a TB medium containing 100 μg/mL ampicillin, 50 μg/mL streptomycin, and 30 μg/mL kanamycin, cultured at 37° C., then exposed to 100 μM IPTG for inducible expression, and further cultured at 16° C.
The culture solution was centrifuged, and the resulting bacterial cells were suspended in 50 mM HEPES pH 8.0, 500 mM NaCl, 20 mM imidazole, 1 mM DTT, 5% (w/v) glycerol, Complete EDTA free, and then subjected to freeze-thawing. After addition of Lysozyme and DNase I, proteins were extracted by ultrasonic disintegration, and centrifugation was performed and the resulting supernatant was collected. The supernatant obtained was purified by using an AKTA express chromatography system (GE Healthcare, IL, US) with a HisTrap FF column (GE Healthcare), and eluted with buffer (20 mM HEPES pH 7.5, 120 mM NaCl, 20% Glycerol, 0.8 mM DTT) through a Superdex 200 16/60 column (GE Healthcare). […] The protein concentrations were measured by using a NanoDrop2000 (Thermo Fisher Scientific, MA, US), and the proteins were cryopreserved at −80° C. until use.
The binding ability of each compound to the STING C-terminal binding domain proteins was evaluated by protein thermal shift assay, which uses the elevation of thermal denaturation temperature of protein as an index.
Specifically, 3 μL of a test compound (final concentration: 0.5 mM), 3 μL of SYPRO Orange Protein Gel Stain (Thermo Fisher Scientific) (final concentration: 20-fold), and 6 μL of a STING protein were mixed with use of assay buffer (20 mM Tris-HCl pH 7.5, 120 mM NaCl) in a 384-well real-time PCR plate, and mixed together with a plate shaker. With a real-time PCR system (Thermo Fisher Scientific), the temperature was increased from 25° C. to 95° C. at a rate of 0.03° C./sec, and the thermal denaturation temperature of the protein was measured by using fluorescence emitted from SYPRO Orange as an index. From the measurement acquired, Tm (the midpoint of the unfolding transition) (° C.) was determined as a temperature at which the increase rate of fluorescence intensity was maximized by using the analysis software Protein Thermal Shift software (Thermo Fisher Scientific). The Tm value for a well with no compound was subtracted from the Tm value for each test compound to calculate the Tm shift caused by the compound as ΔTm (° C.).

In assay [4] the target is T4, HisAviTEV-hSTING (139-342) human AQ-mutated protein (Homo sapiens, UniProt Q86WV6, G230A/H232R/R293Q).
T4 construct: made in house; host or cells: E. coli Rosetta 2 (DE3), co-expressed with BirA (1-321)
The description is as above. To be noted: test compound final concentration 0.5 mM.

In the next assay the target is Human STING (Homo sapiens, UniProt Q86WV6, G230A/H232R/R293Q/R71H). The assay can be described thus: Reporter gene assay, human STING agonist activity, THP1-Dual cells (HAQ-mutated), IRF pathway. To be noted: 24 hours, 100% = maximum count with ML-RR-CDA·2Na+. For orientation: A reporter such as luciferase makes a cellular process visible.
The mark [5] stands for this setting: THP1-Dual cells IRF EC50, THP1-Dual cells (HAQ-mutated).

We go through 16 compounds from patent publication US12370263B2, “Cyclic dinucleotide derivative based antibody-drug conjugates” (DAIICHI SANKYO COMPANY, LIMITED, priority 2018, dated 2025).

SMILES strings stand for the structures. Read-outs that look alike come from different tables or passages of the source.

T3 sequence (Q3TBT3 with tags, fused parts or gaps limits assumed): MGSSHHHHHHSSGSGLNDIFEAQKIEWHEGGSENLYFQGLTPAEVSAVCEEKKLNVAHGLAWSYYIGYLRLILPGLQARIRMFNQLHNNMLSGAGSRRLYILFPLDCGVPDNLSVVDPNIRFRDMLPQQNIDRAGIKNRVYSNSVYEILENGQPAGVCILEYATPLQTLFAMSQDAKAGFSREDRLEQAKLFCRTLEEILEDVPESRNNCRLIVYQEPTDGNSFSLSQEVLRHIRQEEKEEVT
T4 sequence (Q86WV6 with tags, fused parts or gaps G230A/H232R/R293Q): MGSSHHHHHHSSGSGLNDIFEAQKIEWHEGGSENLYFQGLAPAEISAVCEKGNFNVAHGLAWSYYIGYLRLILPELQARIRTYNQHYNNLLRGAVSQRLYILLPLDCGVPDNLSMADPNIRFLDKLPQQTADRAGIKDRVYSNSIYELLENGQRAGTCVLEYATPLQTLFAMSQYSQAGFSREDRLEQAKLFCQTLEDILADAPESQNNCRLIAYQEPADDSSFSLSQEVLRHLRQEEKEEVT
T1 sequence (Q86WV6 with tags, fused parts or gaps, change not shown): as the sequence (Q86WV6 with tags, fused parts or gaps G230A/H232R/R293Q) above, with A131G, R133H, Q194R counted along it
Sequence of Human STING (Q86WV6 whole entry R71H/G230A/H232R/R293Q): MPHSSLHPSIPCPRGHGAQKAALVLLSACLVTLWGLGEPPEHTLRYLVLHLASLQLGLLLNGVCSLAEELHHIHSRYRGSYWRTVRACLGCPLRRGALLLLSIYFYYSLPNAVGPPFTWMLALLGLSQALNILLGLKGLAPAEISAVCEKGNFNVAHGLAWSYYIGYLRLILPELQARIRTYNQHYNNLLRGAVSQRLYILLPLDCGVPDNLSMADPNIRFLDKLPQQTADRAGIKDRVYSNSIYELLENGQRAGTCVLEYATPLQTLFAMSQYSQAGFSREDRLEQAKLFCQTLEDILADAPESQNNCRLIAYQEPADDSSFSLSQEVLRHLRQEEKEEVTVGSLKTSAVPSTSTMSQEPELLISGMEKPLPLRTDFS
T2 sequence (Q86WV6 with tags, fused parts or gaps H232R): as the sequence (Q86WV6 with tags, fused parts or gaps G230A/H232R/R293Q) above, with A131G, Q194R counted along it

The term ΔTm denotes the shift of the melting midpoint relative to a reference. One may read the EC50 as the midpoint of the concentration-response curve. With `O=C(CO)NCCn1cnc2c(ncn2[C@@H]2O[C@@H]3COP(=O)(S)O[C@H]4[C@@H](F)[C@H](n5cc6c7c(ncnc75)NCCC6)O[C@@H]4COP(=O)(S)O[C@@H]2[C@@H]3O)c1=O` (single isomer, unassigned) [36a], the ΔTm at 500 µM is 5.8 °C in assay [1], 10.8 °C in assay [2], 15.4 °C in assay [3] and 13.3 °C in assay [4]. This compound also gave an EC50 at Human STING (setting [5]) of 2000 nM.

Take `O=C(CO)NCCn1cnc2c(ncn2[C@@H]2O[C@@H]3COP(=O)(S)O[C@H]4[C@@H](F)[C@H](n5cc6c7c(ncnc75)NCCC6)O[C@@H]4COP(=O)(S)O[C@@H]2[C@@H]3O)c1=O` (single isomer, unassigned) [36b]: in assay [1], the “ΔTm Hu-REF” value worked out at 5.5 °C. Moreover, the “ΔTm Hu-WT” value in assay [2] worked out at 10.1 °C. The “ΔTm Ms-WT” value in assay [3] is 19.3 °C. Besides, the “ΔTm Hu-AQ” value in assay [4] came out at 11.8 °C. The EC50 at Human STING (read-out: THP1-Dual cells IRF EC50, THP1-Dual cells (HAQ-mutated)) came to 2000 nM.

Take `NCCNc1nc(N)c2ncn([C@@H]3O[C@@H]4COP(=O)(S)O[C@H]5[C@@H](F)[C@H](n6cc7c8c(ncnc86)NCCC7)O[C@@H]5COP(=O)(S)O[C@@H]3[C@@H]4O)c2n1` (single isomer, unassigned) [37a]: the ΔTm at 500 µM in assay [1] is 5.2 °C; in assay [2] it was 11.2 °C; in assay [3], 15.3 °C; in assay [4], 13.6 °C. At Human STING (setting [5]), this compound gave an EC50 of 980 nM.

Consider `NCCNc1nc(N)c2ncn([C@@H]3O[C@@H]4COP(=O)(S)O[C@H]5[C@@H](F)[C@H](n6cc7c8c(ncnc86)NCCC7)O[C@@H]5COP(=O)(S)O[C@@H]3[C@@H]4O)c2n1` (single isomer, unassigned) [37b], for which, in assay [1], the “ΔTm Hu-REF” value was found to be 3.4 °C. Further, in assay [2], the “ΔTm Hu-WT” value was determined as 8.1 °C. The “ΔTm Ms-WT” value in assay [3] was 12.3 °C. Besides, the “ΔTm Hu-AQ” value in assay [4] was 9.4 °C. In addition, the response on Human STING (setting [5]) was half-maximal at 4500 nM (EC50).

Turning to `O=c1c2ncn([C@@H]3O[C@@H]4COP(=O)(S)O[C@H]5[C@@H](O)[C@H](n6cc7c8c(ncnc86)NCCC7)O[C@@H]5COP(=O)(S)O[C@@H]3[C@@H]4F)c2ncn1CCO` (single isomer, unassigned) [39a], the ΔTm at 500 µM in assay [1] stood at 5.7 °C; in assay [2], 10.4 °C; in assay [3] it was 15 °C; in assay [4], 12.9 °C. In addition, the EC50 at Human STING (setting [5]) came out at 190 nM.

With `NCCNc1nc(N)c2ncn([C@@H]3O[C@@H]4COP(=O)(S)O[C@H]5[C@@H](O)[C@H](n6cc7c8c(ncnc86)NCCC7)O[C@@H]5COP(=O)(S)O[C@@H]3[C@@H]4F)c2n1` (single isomer, unassigned) [42a], the ΔTm at 500 µM turned out to be 2.8 °C in assay [1], 6.5 °C in assay [2], 11.2 °C in assay [3] and 9 °C in assay [4]. On Human STING (setting [5]), this compound gave an EC50 of 4200 nM.

Consider `NCCNc1nc(N)c2ncn([C@@H]3O[C@@H]4COP(=O)(S)O[C@H]5[C@@H](O)[C@H](n6cc7c8c(ncnc86)NCCC7)O[C@@H]5COP(=O)(S)O[C@@H]3[C@@H]4F)c2n1` (single isomer, unassigned) [42b], for which the “ΔTm Hu-REF” value in assay [1] worked out at 1.4 °C. The “ΔTm Hu-WT” value in assay [2] came to 5.3 °C. Besides, in assay [3], the “ΔTm Ms-WT” value came out at 10.6 °C. Moreover, the “ΔTm Hu-AQ” value in assay [4] turned out to be 7.4 °C. The same compound yielded an EC50 at Human STING (setting [5]) of 4700 nM.

On to `O=c1c2ncn([C@@H]3O[C@@H]4COP(=O)(S)O[C@H]5[C@@H](F)[C@H](n6cc7c8c(ncnc86)NCCC7)O[C@@H]5COP(=O)(S)O[C@@H]3[C@@H]4F)c2ncn1CCO` (single isomer, unassigned) [44a], for which the ΔTm at 500 µM was 8.7 °C in assay [1], 13.4 °C in assay [2], 19.3 °C in assay [3] and 18.2 °C in assay [4]. At Human STING (setting [5]), this compound had an EC50 of 210 nM.

Turning to `NCCNc1nc(N)c2ncn([C@@H]3O[C@@H]4COP(=O)(S)O[C@H]5[C@@H](F)[C@H](n6cc7c8c(ncnc86)NCCC7)O[C@@H]5COP(=O)(S)O[C@@H]3[C@@H]4F)c2n1` (single isomer, unassigned) [45a], the ΔTm at 500 µM stood at 4.4 °C in assay [1], 8.9 °C in assay [2], 12.3 °C in assay [3] and 10.8 °C in assay [4]. The EC50 at Human STING (setting [5]) amounted to 1200 nM.

Turning to `NCCNc1nc(N)c2ncn([C@@H]3O[C@@H]4COP(=O)(S)O[C@H]5[C@@H](F)[C@H](n6cc7c8c(ncnc86)NCCC7)O[C@@H]5COP(=O)(S)O[C@@H]3[C@@H]4F)c2n1` (single isomer, unassigned) [45b], the “ΔTm Hu-REF” value in assay [1] was 3.1 °C. For the same compound, in assay [2], the “ΔTm Hu-WT” value was determined as 7.5 °C. For the same compound, in assay [3], the “ΔTm Ms-WT” value was 12.1 °C. Besides, the “ΔTm Hu-AQ” value in assay [4] was 9.1 °C. The compound also showed an EC50 at Human STING (setting [5]) of 3100 nM.

As to `O=c1c2ncn([C@@H]3O[C@@H]4COP(=O)(S)O[C@H]5[C@@H](F)[C@H](n6cc7c8c(ncnc86)SCCC7)O[C@@H]5COP(=O)(S)O[C@@H]3[C@@H]4O)c2ncn1CCO` (single isomer, unassigned) [48a], the ΔTm at 500 µM in assay [1] was 9.3 °C; in assay [2] it was 15.9 °C; in assay [3] it was 16 °C; in assay [4] it was 22.2 °C. In addition, the EC50 at Human STING (setting [5]) was 35 nM.

With `NCCn1cnc2c(ncn2[C@@H]2O[C@@H]3COP(=O)(S)O[C@H]4[C@@H](F)[C@H](n5cc6c7c(ncnc75)SCCC6)O[C@@H]4COP(=O)(S)O[C@@H]2[C@@H]3O)c1=O` (single isomer, unassigned) [49b], the ΔTm at 500 µM was determined as 6.6 °C in assay [1], 12.6 °C in assay [2], 19.3 °C in assay [3] and 16.1 °C in assay [4]. For the same compound, the midpoint of the response on Human STING (setting [5]), the EC50, lay at 410 nM.

For `O=C(CO)NCCn1cnc2c(ncn2[C@@H]2O[C@@H]3COP(=O)(S)O[C@H]4[C@@H](F)[C@H](n5cc6c7c(ncnc75)SCCC6)O[C@@H]4COP(=O)(S)O[C@@H]2[C@@H]3O)c1=O` (single isomer, unassigned) [50a], the ΔTm at 500 µM was 6.5 °C in assay [1], 12.3 °C in assay [2], 13 °C in assay [3] and 15.6 °C in assay [4]. This compound had an EC50 on Human STING (setting [5]) of 340 nM.

Regarding `NCCNc1nc(N)c2ncn([C@@H]3O[C@@H]4COP(=O)(S)O[C@H]5[C@@H](F)[C@H](n6cc7c8c(ncnc86)SCCC7)O[C@@H]5COP(=O)(S)O[C@@H]3[C@@H]4F)c2n1` (single isomer, unassigned) [51b], the ΔTm at 500 µM was 4.3 °C in assay [1], 9.9 °C in assay [2], 17 °C in assay [3] and 11.6 °C in assay [4]. In addition, the EC50 at Human STING (setting [5]) amounted to 430 nM.

Turning to `O=c1c2ncn([C@@H]3O[C@@H]4COP(=O)(O)O[C@H]5[C@@H](F)[C@H](n6cc7c8c(ncnc86)NCCC7)O[C@@H]5COP(=O)(S)O[C@@H]3[C@@H]4O)c2ncn1CCO` (single isomer, unassigned) [52a], the ΔTm at 500 µM in assay [1] was determined as 5.6 °C; in assay [2], 10.9 °C; in assay [3] it was 14.3 °C; in assay [4], 13.5 °C. In addition, on Human STING (setting [5]), the EC50 was 310 nM.

Turning to `O=c1c2ncn([C@@H]3O[C@@H]4COP(=O)(S)O[C@H]5[C@@H](F)[C@H](n6cc7c8c(ncnc86)NCCC7)O[C@@H]5COP(=O)(O)O[C@@H]3[C@@H]4O)c2ncn1CCO` (stereo partly drawn) [53a, Disodium (5R,7R,8R,12aR,14R,15R,15aR,16R)-15-fluoro-16-hydroxy-7-[1-(2-hydroxyethyl)-6-oxo-1,6-dihydro-9H-purin-9-yl]-2,10-dioxo-2-sulfide-14-(6,7,8,9-tetrahydro-2H-2,3,5,6-tetraazabenzo[cd]azulen-2-yl)octahydro-2H,10H,12H-5,8-methano-2λ^5,10λ^5-furo[3,2-1][1,3,6,9,11,2,10]pentaoxadiphosphacyclotetradecin-10-olate], the shift in melting temperature (ΔTm) at 500 µM is 5.4 °C in assay [1], 9.6 °C in assay [2], 14.3 °C in assay [3] and 11.6 °C in assay [4]. The EC50 on Human STING (setting [5]) was found to be 6000 nM.
